{"source": "patent US20030135173A1", "about": "(priority 2001, published 2003)", "key": {"S. aureus (MN8)": {"tested_on": "S. aureus (MN8)", "assay": "microbe, parasite or virus in culture", "assay_type": "cell-based", "conditions": "Staphylococcus aureus; for inhibition at 0.2 %: 0.2% test compound; for inhibition at 0.5 %: 0.5% test compound"}, "S. aureus strain RN 6390": {"tested_on": "S. aureus strain RN 6390", "assay_type": "cell-based, Staphylococcus aureus"}, "S. aureus FRI-1187 [1]": {"tested_on": "S. aureus FRI-1187", "assay_type": "cell-based, Staphylococcus aureus"}, "S. aureus FRI-1169": {"tested_on": "S. aureus FRI-1169", "assay_type": "cell-based, Staphylococcus aureus"}, "S. aureus FRI-1187 [2]": {"tested_on": "S. aureus FRI-1187", "assay_type": "cell-based, Staphylococcus aureus", "remark": "listed apart in the source"}, "[3]": {"conditions": "read-out: Reduction of Toxin %, Table 2"}, "[4]": {"conditions": "read-out: Reduction of Toxin %, Table 4"}, "[5]": {"conditions": "read-out: Reduction of Toxin %, Table 3"}}, "note": "Where two headings read alike, the source gives them in different places."}
{"smiles": "O=C(O)c1ccccc1O", "note": "[2-hydroxybenzoic acid]", "values": [{"measurement": "inhibition at 0.2 %", "setting": "S. aureus (MN8); [3]", "result": 93, "unit": "%"}]}
{"smiles": "CC(=O)Nc1ccc(O)cc1", "note": "[4-Acetamidophenol]", "values": [{"measurement": "inhibition at 0.5 %", "setting": "S. aureus (MN8); [4]", "result": 79, "unit": "%"}]}
{"smiles": "CC(=O)N[C@@H](Cc1ccc(O)cc1)C(=O)O", "note": "[Acetyl tyrosine]", "values": [{"measurement": "inhibition at 0.5 %", "setting": "S. aureus (MN8); [5]", "result": 69, "unit": "%"}]}
{"smiles": "O=C(O)c1cc(O)c(O)c(O)c1", "note": "[Gallic acid]", "values": [{"measurement": "inhibition at 0.5 %", "setting": "S. aureus (MN8); [5]", "result": 95, "unit": "%"}]}
{"smiles": "OCCc1ccccc1", "note": "[Phenylethyl alcohol]", "values": [{"measurement": "inhibition at 0.5 %", "setting": "S. aureus (MN8); [3]", "result": 97, "unit": "%"}, {"measurement": "inhibition at 0.5 %", "setting": "S. aureus (MN8); [5]", "result": 98, "unit": "%"}, {"measurement": "inhibition at 0.5 %", "setting": "S. aureus (MN8); [4]", "result": 98, "unit": "%"}, {"measurement": "production of the alpha toxin", "setting": "S. aureus strain RN 6390", "result": "significantly reduced"}, {"measurement": "amount of exotoxin production", "setting": "S. aureus FRI-1187 [1]", "result": "significantly reduced"}, {"measurement": "effect on the growth of S. aureus cells", "setting": "S. aureus FRI-1169", "result": "minimal, if any, effect"}, {"measurement": "effect on the growth of S. aureus cells", "setting": "S. aureus FRI-1187 [2]", "result": "minimal, if any, effect"}]}
{"smiles": "O=C(O)/C=C/c1ccccc1", "note": "[Trans-cinnamic acid]", "values": [{"measurement": "inhibition at 0.5 %", "setting": "S. aureus (MN8); [5]", "result": 82, "unit": "%"}]}
{"smiles": "Nc1ccc(C(=O)O)cc1", "note": "[p-aminobenzoic acid]", "values": [{"measurement": "inhibition at 0.2 %", "setting": "S. aureus (MN8); [3]", "result": 89, "unit": "%"}]}
{"smiles": "COC(=O)c1ccc(O)cc1", "note": "[p-hydroxybenzoic acid, methyl ester]", "values": [{"measurement": "inhibition at 0.2 %", "setting": "S. aureus (MN8); [3]", "result": 82, "unit": "%"}, {"measurement": "production of the alpha toxin", "setting": "S. aureus strain RN 6390", "result": "significantly reduced"}]}
